Laboratory results: PubChem BioAssay AID330 (DTP/NCI, 2004)
Where “and” joins values, the source holds several entries; their conditions need not be identical. Equal values may be shown once. Toxic doses and inconclusive results are not listed. The calls were made as follows: active = survival T/C of 150% or more; inactive = T/C below 125% in these data.

System: P388 leukemia ip, CD2F1 mice, survival T/C
Test: NCI In Vivo Anticancer Drug Screen. Data for tumor model P388 Leukemia (intraperitoneal) in CD2F1 (CDF1) mice
Conditions: endpoint: median survival time, higher = longer survival
Procedure, shortened: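 Mice carrying the transplanted tumor received test compound or vehicle. Survival was recorded in each group, and the value is the treated-group measurement divided by that of the vehicle-treated control group.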

[1] = dose: 60.0 mg/kg/injection, schedule: Q01DX005 (ip), vehicle: Klucel (hydroxypropylcellulose) (HPC)
[2] = dose: 120.0 mg/kg/injection, schedule: Q01DX005 (ip), vehicle: Klucel (hydroxypropylcellulose) (HPC)
[3] = dose: 240.0 mg/kg/injection, schedule: Q01DX005 (ip), vehicle: Klucel (hydroxypropylcellulose) (HPC)
[4] = dose: 6.25 mg/kg/injection, schedule: Q01DX005 (ip), vehicle: saline with Tween-80
[5] = dose: 12.5 mg/kg/injection, schedule: Q01DX005 (ip), vehicle: saline with Tween-80
[6] = dose: 100.0 mg/kg/injection, schedule: Q01DX001 (ip), vehicle: saline with Tween-80
[7] = dose: 200.0 mg/kg/injection, schedule: Q01DX001 (ip), vehicle: saline with Tween-80
[8] = dose: 400.0 mg/kg/injection, schedule: Q01DX001 (ip), vehicle: saline with Tween-80
[9] = dose: 50.0 mg/kg/injection, schedule: Q01DX009 (ip), vehicle: saline
[10] = dose: 100.0 mg/kg/injection, schedule: Q01DX009 (ip), vehicle: saline

Measured: T/C

CCC(C)C1NC(=O)C(NC(=O)c2c3[nH]c4c(C(=O)NC5C(=O)NC(C(C)CC)C(=O)N6CCCC6C(=O)N(C)CC(=O)N(C)C(C(C)C)C(=O)OC5C)ccc(C)c4oc-3c(C)c(=O)c2=O)C(C)OC(=O)C(C(C)C)N(C)C(=O)CN(C)C(=O)C2CCCN2C1=O (stereo unspecified)
inactive: dose: 0.05 mg/kg/injection, schedule: Q01DX009 (ip), vehicle: water 99 % of control | dose: 0.1 mg/kg/injection, schedule: Q01DX009 (ip), vehicle: water 104 % of control | dose: 0.2 mg/kg/injection, schedule: Q01DX009 (ip), vehicle: water 95 % of control | dose: 0.4 mg/kg/injection, schedule: Q01DX009 (ip), vehicle: water 100 % of control and 104 % of control | dose: 0.8 mg/kg/injection, schedule: Q01DX009 (ip), vehicle: water 101 % of control and 96 % of control | dose: 1.6 mg/kg/injection, schedule: Q01DX009 (ip), vehicle: water 102 % of control and 110 % of control | dose: 3.2 mg/kg/injection, schedule: Q01DX009 (ip), vehicle: water 110 % of control | dose: 6.4 mg/kg/injection, schedule: Q01DX009 (ip), vehicle: water 123 % of control

N#Cc1nnc2cc(-c3ccccc3)nn2c1-c1cccs1
inactive: [1] 86 % of control | [2] 90 % of control | [3] 87 % of control

N#CC(Br)(Br)C(=O)c1nc(N)nc(N)n1
inactive: dose: 3.12 mg/kg/injection, schedule: Q01DX005 (ip), vehicle: saline with Tween-80 96 % of control | [4] 100 % of control | [5] 104 % of control

CC(C#N)C(N)=O (stereo unspecified)
inactive: dose: 12.5 mg/kg/injection, schedule: Q04DX003 (ip), vehicle: saline 100 % of control | dose: 25.0 mg/kg/injection, schedule: Q04DX003 (ip), vehicle: saline 105 % of control | dose: 50.0 mg/kg/injection, schedule: Q04DX003 (ip), vehicle: saline 110 % of control

O=[N+]([O-])c1c(Cl)cc(Cl)c(-c2c(Cl)cc(Cl)c([N+](=O)[O-])c2Cl)c1Cl
inactive: dose: 25.0 mg/kg/injection, schedule: Q01DX009 (ip), vehicle: other 102 % of control | dose: 50.0 mg/kg/injection, schedule: Q01DX009 (ip), vehicle: other 106 % of control | dose: 100.0 mg/kg/injection, schedule: Q01DX009 (ip), vehicle: other 107 % of control | dose: 200.0 mg/kg/injection, schedule: Q01DX009 (ip), vehicle: other 106 % of control | dose: 400.0 mg/kg/injection, schedule: Q01DX009 (ip), vehicle: other 105 % of control

COC(=O)c1nc2[nH]n(-c3ccccc3)c(=O)c2c(C(=O)OC)c1C(C)C(=O)c1ccccc1 (stereo unspecified)
inactive: dose: 60.0 mg/kg/injection, schedule: Q01DX005 (ip), vehicle: saline with Tween-80 100 % of control | dose: 120.0 mg/kg/injection, schedule: Q01DX005 (ip), vehicle: saline with Tween-80 109 % of control | dose: 240.0 mg/kg/injection, schedule: Q01DX005 (ip), vehicle: saline with Tween-80 94 % of control

Cc1oc2c(c(=O)c1C)CN(Cc1ccccc1)CC2
inactive: [6] 100 % of control | [7] 100 % of control | [8] 99 % of control

CC(=O)SCN1CCCCC1
inactive: dose: 12.5 mg/kg/injection, schedule: Q01DX009 (ip), vehicle: saline 108 % of control | dose: 25.0 mg/kg/injection, schedule: Q01DX009 (ip), vehicle: saline 108 % of control and 112 % of control | dose: 25.0 mg/kg/injection, schedule: Q04DX002 (ip), vehicle: saline 110 % of control | [9] 102 % of control and 118 % of control | dose: 50.0 mg/kg/injection, schedule: Q04DX002 (ip), vehicle: saline 112 % of control | [10] 108 % of control | dose: 100.0 mg/kg/injection, schedule: Q04DX002 (ip), vehicle: saline 114 % of control and 116 % of control

CCC1OC(/C(C)=C/C(C)/C=C/C2C(C)C2/C=C/C2OC(CC(=O)O)CC(O)C2O)CC=C1C (stereo unspecified)
inactive: dose: 16.82 mg/kg/injection, schedule: Q01DX009 (ip), vehicle: saline 100 % of control | dose: 33.65 mg/kg/injection, schedule: Q01DX009 (ip), vehicle: saline 92 % of control | dose: 67.3 mg/kg/injection, schedule: Q01DX009 (ip), vehicle: saline 94 % of control

Nc1ncnc2c1nnn2C1OC(CO)C(O)C1O (stereo unspecified)
inactive: dose: 100.0 mg/kg/injection, schedule: Q01DX009 (ip), vehicle: Klucel (hydroxypropylcellulose) (HPC) 100 % of control
active: dose: 50.0 mg/kg/injection, schedule: Q01DX009 (ip), vehicle: Klucel (hydroxypropylcellulose) (HPC) 157 % of control

C=CC(c1ccccc1)c1cc2c(cc1OCC)OCO2 (stereo unspecified)
inactive: dose: 50.0 mg/kg/injection, schedule: Q01DX005 (ip), vehicle: Klucel (hydroxypropylcellulose) (HPC) 105 % of control | dose: 100.0 mg/kg/injection, schedule: Q01DX005 (ip), vehicle: Klucel (hydroxypropylcellulose) (HPC) 100 % of control | dose: 200.0 mg/kg/injection, schedule: Q01DX005 (ip), vehicle: Klucel (hydroxypropylcellulose) (HPC) 94 % of control

CN(C)CCCN1CN(CCCN(C)C)CC(C)(C)C1
inactive: dose: 50.0 mg/kg/injection, schedule: Q01DX009 (ip), vehicle: saline with Tween-80 103 % of control | dose: 100.0 mg/kg/injection, schedule: Q01DX009 (ip), vehicle: saline with Tween-80 106 % of control

C(=NCCCN=CC1CCCC[N-]1)C1CCCC[N-]1.[Cu+2].[O-][Cl+3]([O-])([O-])O (stereo unspecified)
inactive: dose: 3.12 mg/kg/injection, schedule: Q01DX009 (ip), vehicle: saline with Tween-80 103 % of control | dose: 6.25 mg/kg/injection, schedule: Q01DX009 (ip), vehicle: saline with Tween-80 101 % of control | dose: 12.5 mg/kg/injection, schedule: Q01DX009 (ip), vehicle: saline with Tween-80 103 % of control and 112 % of control | dose: 25.0 mg/kg/injection, schedule: Q01DX009 (ip), vehicle: saline with Tween-80 103 % of control

CCCCC(CCC)(CCC)CCN
inactive: dose: 2.5 mg/kg/injection, schedule: Q01DX009 (ip), vehicle: suspension in saline 104 % of control and 105 % of control | dose: 5.0 mg/kg/injection, schedule: Q01DX009 (ip), vehicle: suspension in saline 100 % of control and 105 % of control | dose: 10.0 mg/kg/injection, schedule: Q01DX009 (ip), vehicle: suspension in saline 122 % of control and 97 % of control | dose: 20.0 mg/kg/injection, schedule: Q01DX009 (ip), vehicle: suspension in saline 106 % of control

COC(=O)c1ncn(C2CCCCC2)c1N
inactive: [4] 99 % of control | [5] 101 % of control

COc1ccc[nH]c1=O
inactive: [9] 102 % of control and 103 % of control | [10] 106 % of control and 109 % of control | dose: 200.0 mg/kg/injection, schedule: Q01DX009 (ip), vehicle: saline 100 % of control and 105 % of control | dose: 400.0 mg/kg/injection, schedule: Q01DX009 (ip), vehicle: saline 105 % of control and 112 % of control | dose: 600.0 mg/kg/injection, schedule: Q01DX009 (ip), vehicle: saline 106 % of control and 114 % of control

NC1=C(O)C(=O)C(c2cccnc2)O1 (stereo unspecified)
inactive: dose: 30.0 mg/kg/injection, schedule: Q01DX005 (ip), vehicle: Klucel (hydroxypropylcellulose) (HPC) 102 % of control | [1] 96 % of control | [2] 86 % of control and 93 % of control | [3] 86 % of control

Cc1c(CNc2ccc(C(=O)NC(CC(=O)O)C(=O)O)cc2)ccc2nc(N)nc(N)c12 (stereo unspecified)
active: dose: 12.5 mg/kg/injection, schedule: Q04DX003 (ip), vehicle: saline with Tween-80 159 % of control | dose: 16.5 mg/kg/injection, schedule: Q04DX003 (ip), vehicle: saline with Tween-80 200 % of control

O=C1C(Cl)=C(Cl)C(=O)N1c1ccc(Br)cc1Br
inactive: dose: 100.0 mg/kg/injection, schedule: Q04DX002 (ip), vehicle: Klucel (hydroxypropylcellulose) (HPC) 105 % of control | dose: 200.0 mg/kg/injection, schedule: Q04DX002 (ip), vehicle: Klucel (hydroxypropylcellulose) (HPC) 105 % of control | dose: 400.0 mg/kg/injection, schedule: Q04DX002 (ip), vehicle: Klucel (hydroxypropylcellulose) (HPC) 100 % of control

O=C1CN=C(c2ccccc2)c2cc(Cl)ccc2N1CC1CC1
inactive: dose: 100.0 mg/kg/injection, schedule: Q04DX003 (ip), vehicle: saline 100 % of control | dose: 200.0 mg/kg/injection, schedule: Q04DX003 (ip), vehicle: saline 94 % of control | dose: 400.0 mg/kg/injection, schedule: Q04DX003 (ip), vehicle: saline 101 % of control

O=C1CN(/N=C/c2ccc(-c3ccc(F)cc3)o2)C(=O)N1
inactive: dose: 50.0 mg/kg/injection, schedule: Q01DX001 (ip), vehicle: saline with Tween-80 103 % of control | [6] 100 % of control | [7] 100 % of control | [8] 100 % of control
